# Where two headings read alike, the source gives them in different places.
# Legend:
# [1] = molecular target: T1, 5-HT1A (Homo sapiens, UniProt P08908); test: 5HT1A Radioligand Receptor Binding Assay ([3H]-8-OH-DPAT, CHO cell membranes); parameters: expressed in transfected cells; host or cells: CHO cells; conditions: for inhibition at 0.1 µM / 5-HT1A Receptor Binding Assay % inhibition (10^−7 M): compound 10^−7 M, singlicate, [3H]-8-OH-DPAT 0.6-0.7 nM
# T1 sequence (P08908 1-422): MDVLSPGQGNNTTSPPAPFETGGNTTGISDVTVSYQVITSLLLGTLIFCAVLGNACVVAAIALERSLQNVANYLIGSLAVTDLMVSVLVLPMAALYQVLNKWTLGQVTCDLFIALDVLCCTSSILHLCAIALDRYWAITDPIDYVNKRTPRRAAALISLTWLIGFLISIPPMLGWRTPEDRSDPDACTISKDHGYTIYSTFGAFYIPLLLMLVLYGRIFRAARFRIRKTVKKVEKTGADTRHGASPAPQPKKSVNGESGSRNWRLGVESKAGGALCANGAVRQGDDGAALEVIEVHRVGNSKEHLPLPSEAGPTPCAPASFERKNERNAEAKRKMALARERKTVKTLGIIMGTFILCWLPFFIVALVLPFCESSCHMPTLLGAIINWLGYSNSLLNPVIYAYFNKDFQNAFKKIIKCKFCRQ
# Description: 5HT1A Radioligand Receptor Binding Assay
# Membranes from CHO cells, expressing 5-HT1A human receptors were suspended in incubation buffer.
# Binding assays were performed in MultiProbe 204 pipetting system (Packard), according to a predetermined mapping, consistent with the software Screen. The compounds were tested in singlicate at one concentration (10^−7 M) in a total volume of 1000 μl. 980 μl of diluted membranes, 10 μl DMSO or unlabelled ligand and 10 μl of [^3H]-8-OH-DPAT (0.6-0.7 nM) were incubated for 60 minutes at 27° C. The reaction was stopped by rapid filtration through Tomtec Cell Harvester (48 wells) using Filtermat B (presoaked in 0.1% PEI) filters. Filters were washed with ice-cold 50 mM Tris-HCl (pH 7.4) buffer (9×700 μl), dried, covered with MeltiLex B/HS scintillator sheets (Wallac) and heated at 80° C. to 90° C. for about 10 minutes, transferred into plastic sample bags (Wallac), sealed, and put into 1024 Beta Plate scintillation counter (Wallac). Non-specific binding was determined in the presence of 5-HT (10^−5 M).
# The specific radioligand binding to the receptor was defined by the difference between total binding and non-specific binding, determined in the presence of an excess of unlabelled ligand. Results were expressed as percentage of control specific binding obtained in the presence of the compounds. The affinity values (IC50) for the compounds were obtained by a nonlinear least squares regression analysis on the basis of a one binding site model.
# [2] = molecular target: T1, 5-HT1A; test: 5-HT1 Functional Assay (cAMP) in CHO/5-HT1A cells; type: cell-based; parameters: expressed in transfected cells; host or cells: CHO/5-HT1A cells
# Description: 5-HT1 Functional Assay (cAMP)
# CHO/5-HT1A cells were random seeded at a density of about 200,000/well in 24 well plates the day prior to the experiment. On the day of the experiment, cells were pretreated for 15 minutes at 37° C. with 500 μM isobutylmethylxantine (IBMX) dissolved in culture medium without serum. Wells were then divided in different groups in duplicate as follows: control, 10 μM FSK, 10 μM FSK+1 μM 5-HT as positive standard and 10 μM FSK+10 μM of the different compound under evaluation. Sample solutions were added and incubated for additional 15 minutes at 37° C. After incubation, the medium was aspirated and the reaction stopped by adding 200 μl of lysis buffer. Plates were shaken for 5 minutes, then the lysate was removed and samples were stored at 4° C. until the day of the assay. For the cAMP evaluation, samples were properly diluted and the cAMP content was measured by an enzyme immunoassay system.
# [3] = molecular target: T2, D4 human receptors (Homo sapiens, UniProt P21917); test: D4 Radioligand Receptor Binding Assay ([3H] YM-09151-2, CHO cell membranes); conditions: compound 10^−7 M, singlicate, [3H] YM-09151-2 0.15-0.25 nM
# T2 construct: expressed in transfected cells; host or cells: CHO cells
# T2 sequence (P21917 1-419): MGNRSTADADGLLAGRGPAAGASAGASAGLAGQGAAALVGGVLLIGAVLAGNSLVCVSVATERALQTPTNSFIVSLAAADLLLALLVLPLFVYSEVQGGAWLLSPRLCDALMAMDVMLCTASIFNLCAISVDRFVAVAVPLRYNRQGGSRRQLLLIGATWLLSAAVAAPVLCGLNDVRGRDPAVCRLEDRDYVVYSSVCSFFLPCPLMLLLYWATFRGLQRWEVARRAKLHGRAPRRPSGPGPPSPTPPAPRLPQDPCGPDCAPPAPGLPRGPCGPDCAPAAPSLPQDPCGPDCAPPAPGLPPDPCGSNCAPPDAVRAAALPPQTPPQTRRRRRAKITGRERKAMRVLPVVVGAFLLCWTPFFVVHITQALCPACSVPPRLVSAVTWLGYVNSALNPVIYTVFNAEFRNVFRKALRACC
# Description: D4 Radioligand Receptor Binding Assay
# Membranes from CHO cells expressing D4 human receptors, were suspended in incubation buffer.
# Binding assays were performed in MultiProbe 204 pipetting system (Packard), according to a predetermined mapping, consistent with the software Screen. The compounds were tested in singlicate at one concentration (10^−7 M) in a total volume of 1000 μl (980 μl of diluted membranes, 10 μl DMSO or unlabelled ligand and 10 μl of [^3H] YM-09151-2 (0.15-0.25 nM). After incubation for 120 minutes at 27° C., the reaction was stopped by rapid filtration through Tomtec Cell Harvester (48 wells) using Filtermat B (presoaked in 0.1% PEI) filters. Filters were washed with ice-cold 50 mM Tris-HCl (pH 7.4) buffer (9×700 μl), dried, covered with MeltiLex B/HS (Wallac) scintillator sheets and heated in oven at 80° C. to 90° C. for about 10 minutes, transferred into plastic sample bags (Wallac), sealed, and put into 1024 Beta Plate scintillation counter (Wallac). Non-specific binding was determined in the presence of clozapine dissolved in DMSO to a final concentration of 10^−5 M.
# The specific radioligand binding to the receptor was defined by the difference between total binding and non-specific binding, determined in the presence of an excess of unlabelled ligand. Results were expressed as percentage of control specific binding obtained in the presence of the compounds.
# [4] = [3H]-8-OH-DPAT, CHO membranes, human 5-HT1A, read-out: 5-HT1A Receptor Binding IC50
Compound,"IC50 [1, 4]",inhibition at 10 µM [2],"5-HT1A Receptor Binding Assay % inhibition (10^−7 M) ([1]; CHO membranes, human 5-HT1A)",D4 Receptor Binding Assay % inhibition (10^−7 M) [3],other results
O=c1n(CCN2CCOCC2)c2ccccc2n1CCN1CCN(c2cccc(C(F)(F)F)c2)CC1 [Compound 228],6 nM,82%,,,"inhibition at 0.1 µM ([1]; CHO membranes, human 5-HT1A): 95%; inhibition at 0.1 µM [3]: 33%"
COCCn1c(=O)n(C/C=C\CN2CCN(c3cccc(C(F)(F)F)c3)CC2)c2ccccc21 [Compound 284],4.9 nM,82%,,,
COCCn1c(=O)n(C/C=C\CN2CC=C(c3ccccc3)CC2)c2ccccc21 [Compound 285],,47%,,,"IC50 [1]: 5.2 nM; inhibition at 0.1 µM ([1]; CHO membranes, human 5-HT1A): 96%; inhibition at 0.1 µM [3]: 32%"
COCCn1c(=O)n(C/C=C/CN2CCN(c3cccc(C(F)(F)F)c3)CC2)c2ccccc21 [Compound 301],2.6 nM,83%,,,
O=c1n(C/C=C/CN2CCN(c3cccc(Cl)c3)CC2)c2ccccc2n1CCN1CCOCC1 [Compound 348],3.5 nM,57%,,,
O=c1n(C/C=C\CN2CCc3c([nH]c4ccccc34)C2)c2ccccc2n1CCO [Compound 367],,,61%,90%,
O=c1n(C/C=C\CN2CCN(c3ccc(Cl)c(Cl)c3)CC2)c2ccccc2n1CCO [Compound 371],,,59%,95%,
O=c1n(C/C=C/CN2CCN(c3ccccc3)CC2)c2ccccc2n1CCO [Compound 378],,,77%,35%,
O=c1n(C/C=C/CN2CCN(c3cccc(Cl)c3)CC2)c2ccccc2n1CCO [Compound 382],11 nM,64%,,,"inhibition at 0.1 µM ([1]; CHO membranes, human 5-HT1A): 88%; inhibition at 0.1 µM [3]: 39%"
O=c1n(C/C=C/CN2CCN(c3cccc(C(F)(F)F)c3)CC2)c2ccccc2n1CCO [Compound 386],6.7 nM,82%,,,
CCNC(=O)OCCn1c(=O)n(C/C=C\CN2CCN(c3ccccc3)CC2)c2ccccc21 [Compound 395],,,86%,32%,
CCNC(=O)OCCn1c(=O)n(C/C=C\CN2CCN(c3cccc(C(F)(F)F)c3)CC2)c2ccccc21 [Compound 403],5.5 nM,84%,,,
CCNC(=O)OCCn1c(=O)n(C/C=C\CN2CC=C(c3ccccc3)CC2)c2ccccc21 [Compound 404],2.1 nM,60%,,,"inhibition at 0.1 µM ([1]; CHO membranes, human 5-HT1A): 95%; inhibition at 0.1 µM [3]: 34%"
CCNC(=O)OCCn1c(=O)n(C/C=C/CN2CCN(c3ccccc3)CC2)c2ccccc21 [Compound 412],,,93%,39%,
CCNC(=O)OCCn1c(=O)n(C/C=C/CN2CCN(c3cccc(C(F)(F)F)c3)CC2)c2ccccc21 [Compound 420],1.8 nM,87%,,,
CCNC(=O)OCCn1c(=O)n(C/C=C/CN2CC=C(c3ccccc3)CC2)c2ccccc21 [Compound 421],0.66 nM,56%,,,
CC(=O)NCCn1c(=O)n(C/C=C/CN2CCN(c3cccc(C(F)(F)F)c3)CC2)c2ccccc21 [Compound 481],11 nM,82%,,,
CS(=O)(=O)NCCn1c(=O)n(C/C=C\CN2CCN(c3cccc(Cl)c3)CC2)c2ccccc21 [Compound 499],5 nM,74%,,,
CS(=O)(=O)NCCn1c(=O)n(C/C=C\CN2CCc3c([nH]c4ccccc34)C2)c2ccccc21 [Compound 501],,,70%,63%,
CS(=O)(=O)NCCn1c(=O)n(C/C=C\CN2CCN(c3ccc(Cl)c(Cl)c3)CC2)c2ccccc21 [Compound 505],,,78%,58%,
CS(=O)(=O)NCCn1c(=O)n(C/C=C/CN2CCN(c3cccc(C(F)(F)F)c3)CC2)c2ccccc21 [Compound 525],1.5 nM,87%,,,
CS(=O)(=O)NCCn1c(=O)n(C/C=C/CN2CCN(c3ccc(Cl)c(Cl)c3)CC2)c2ccccc21 [Compound 527],,,73%,36%,
COc1ccccc1N1CCN(C/C=C/Cn2c(=O)n(CCNS(C)(=O)=O)c3ccccc32)CC1 [Compound 535],,,97%,39%,

# From patent US6521623B1, “N,N'-disubstituted benzimidazolone derivatives with affinity at the serotonin and dopamine receptors” (Boehringer Ingelheim Pharma KG, priority 2000, dated 2003)
